Reference: patent US20160244453A1, “TREATMENT OF VIRAL AND INFECTIOUS DISEASES USING AN INHIBITOR OF CBP/CATENIN” (PRISM PHARMA CO., LTD., priority 2013, published 2016)

Key:
Assay type in all cases: cell-based
LC3B = assay: Autophagy induction in macrophages, LC3B immunoblotting
From the text: Microtubule-associated protein 1A/1B-light chain 3 (LC3) is a soluble protein that is distributed ubiquitously in mammalian tissues and cultured cells (reviewed in Methods Mol. Biol. 445, 77-88 (2008). During autophagy, autophagosomes engulf cytoplasmic components, including cytosolic proteins and organelles. Concomitantly, a cytosolic form of LC3 (LC3-I) is conjugated to phosphatidylethanolamine to form LC3-phosphatidylethanolamine conjugate (LC3-II), which is recruited to autophagosomal membranes. Autophagosomes fuse with lysosomes to form autolysosomes, and intra-autophagosomal components are degraded by lysosomal hydrolases. At the same time, LC3-II in autolysosomal lumen is degraded. Thus, lysosomal turnover of the autophagosomal marker LC3-II reflects starvation-induced autophagic activity, and detecting LC3 by immunoblotting or immunofluorescence is an indicator of autophagy and autophagy-related processes, including autophagic cell death.
(§1) For these studies, macrophages were exposed to rapamycin 100 nM (a known inducer of autophagic flux), proteins were extracted and subjected to immunoblotting.
During autophagy, LC3B (LC3B-I) forms LC3B-phosphatidylethanolamine conjugate (LC3B-II), which is recruited to autophagosomal membranes. When there is autophagic flux there is lipidation of LC3B-I that results in conversion of LC3B-II. Thus, during autophagic flux the relative quantity of LC3B-II is increased compared to LC3B-I.

[1] = tested on: Sequestome 1/p62 (SQSTM1); assay: Autophagic flux in macrophages, SQSTM1/p62 immunoblotting; details: Compound A 1 and 2 μM, rapamycin 100 nM, immunoblot
Experimental: as §1
In addition, the inventors looked at another marker of autophagic flux (sequestosome 1, also called SQSTIM1 or p62). During active autophagy, SQSTIM1 is degraded (decreased).

HIV = HIV replication in macrophages, HIV p24 antigen released into culture supernatants; details: macrophages pretreated 24 hours; infection monitored 10 days; concentrations 100 pM to 2 μM
Experimental: For these experiments, peripheral blood mononuclear cells (PBMCs) were isolated from HIV seronegative donors and differentiated into macrophages for 7-10 days using methods previously described (J Biol Chem 286: 18890-18902 (2011); PLoS Pathogens 8(5):e1002689 pp 1-13 (2012); PLoS Pathogens 8(11):e1003017 (2012)). The macrophages were pretreated for 24 hours with Compound C, which is the β-catenin inhibitor (6S,9S,9aS)-N-benzyl-6-(4-hydroxybenzyl)-2,9-dimethyl-4,7-dioxo-8-(quinolin-8-ylmethyl)octahydro-1H-pyrazino[2,1-c][1,2,4]triazine-1-carboxamide. Macrophages were treated with Compound C at increasing concentrations and productive infection was monitored for 10 days by detection of HIV p24 antigen released into the culture supernatants.

CD4 Tscm = assay: In vitro culture assay of sorted CD4 Tscm, phenotype by flow cytometry; details: 10 d incubation with rhIL-15; compared to control experiments
Experimental: (§2) PBMC were stained with monoclonal antibodies directed against CD4, CD3, CD45RA, CCR7, CD62L, CD122, CD95, according to standard protocols. After 20 minutes, CCR7+ CD45RA+ naïve CD4 T cells, CCR7+ CD45RA− central-memory CD4 T cells (CD4 Tcm), CCR7− CD45RA− CD4 T cells, CCR7− CD45RA+ terminally-differentiated CD4 T cells (CD4 Ttd) and CCR7+ CD45RA+ CD62L+ CD95+ CD122+ T memory stem cell CD4 T cells (CD4 Tscm) were live sorted in a specifically designated biosafety cabinet (Baker Hood), using a FACS Aria cell sorter (BD Biosciences) at 70 pounds per square inch. For phenotypic characterization, cells were additionally stained with CCR5 or CXCR4 antibodies, or Annexin V, and acquired on a LSRII flow cytometer (BD Biosciences). Data were analyzed using FlowJo software (Treestar).
(§3) Selected CD4 T cell subsets were isolated by cell sorting, labeled cells with 2 μM CFSE for 7 min at 37° C., and incubated with rhIL-15 (25 ng/ml; Peprotech) for 10 d in the presence or absence of Compound C, (6S,9S,9aS)-N-benzyl-6-(4-hydroxybenzyl)-2,9-dimethyl-4,7-dioxo-8-(quinolin-8-ylmethyl)octahydro-1H-pyrazino[2,1-c][1,2,4]triazine-1-carboxamide (Prism Biolabs). Afterwards, cells were harvested and phenotypically characterized by flow cytometry. […]

CD4 Tcm = assay: In vitro culture assay of sorted CD4 Tcm, phenotype by flow cytometry; details: 10 d incubation with rhIL-15; compared to control experiments
Experimental: as §2, §3

SMILES	induction of autophagy (LC3B; 1 and 2 μM)	levels of LC3B II and LC3B I relative to negative control (LC3B; Compound A 2 μM, rapamycin 100 nM, immunoblot)	amount of LC3B II and LC3B I relative to negative control (LC3B; Compound A 1 and 2 μM, rapamycin 100 nM, immunoblot)	SQSTM1 (p62) levels relative to negative control [1]	HIV replication (HIV p24 antigen) (HIV)	differentiation of Tscm into more mature CCR7− CD62L− CD4 T cell populations (CD4 Tscm)	differentiation of Tcm into more mature CCR7− CD62L− CD4 T cell populations (CD4 Tcm)
C[C@H]1[C@H]2N(C(=O)CN(C)N2C(=O)NCc2ccccc2)[C@@H](Cc2ccc(OP(=O)(O)O)cc2)C(=O)N1Cc1cccc2cccnc12 [Compound A, 4-(((6S,9S,9aS)-1-(benzylcarbamoyl)-2,9-dimethyl-4,7-dioxo-8-(quinolin-8-ylmethyl)octahydro-1H-pyrazino[2,1-c][1,2,4]triazin-6-yl)methyl)phenyl dihydrogen phosphate]	induces autophagy	greatly reduced	increased amount of LC3B II and decreased amount of LC3B I	reduced	–	–	–
C[C@H]1[C@H]2N(C(=O)CN(C)N2C(=O)NCc2ccccc2)[C@@H](Cc2ccc(O)cc2)C(=O)N1Cc1cccc2cccnc12 [Compound C, (6S,9S,9aS)-N-benzyl-6-(4-hydroxybenzyl)-2,9-dimethyl-4,7-dioxo-8-(quinolin-8-ylmethyl)octahydro-1H-pyrazino[2,1-c][1,2,4]triazine-1-carboxamide]	–	–	–	–	inhibits HIV in a dose dependent manner	substantially facilitated differentiation	to a lesser extent
